Experimental data: PMC2787644 (Clinical cancer research : an official journal of the …, 2009)
Like-named read-outs stand apart in the source and are kept apart here. Blank lines part the entries; values can stand above or below the compound they belong to.

How the values were obtained:
[1] = format: in vivo, human; settings: component of flavopiridol + FOLFOX
[2] = Flavopiridol plasma pharmacokinetics; format: in vivo; settings: human, intravenous, 80 mg/m2, Cmax, cohort 7a (80 mg/m^2)
[3] = 70 mg/m^2, combined with irinotecan; cited from earlier work
cisplatin-refractory GCT = settings: single agent, cited from earlier work

SMILES: O=c1[nH]cc(F)c(=O)[nH]1 [5FU, fluorouracil]
- Maximum tolerated dose (MTD), continuous infusion over 48 hours ([1]; every 2 weeks (cohort 6a)): 1800 mg/m^2
- Maximum tolerated dose (MTD), bolus ([1]; every 2 weeks (fixed dose)): 400 mg/m^2

- Cmax ([2]; the 3 patients who experienced a DLT): 2260 nM
- Cmax ([2]; the other patients in the cohort): 1450 nM
SMILES: CN1CC[C@H](c2c(O)cc(O)c3c(=O)cc(-c4ccccc4Cl)oc23)[C@H](O)C1 [flavopiridol, Flavopiridol]
- Cmax [3]: 2760 ± 540 nM

SMILES: O=C1[O][Pt]2([NH][C@@H]3CCCC[C@H]3[NH]2)[O]C1=O [oxaliplatin]
- Overall response rate (cisplatin-refractory GCT; 60 mg/m^2 weekly on days 1, 8, 15 every 28 days): 6%
- Objective response rate (cisplatin-refractory GCT; 130 mg/m^2 every 2 weeks): 19%
